Experiments:
RXRβ [1] = target: T1, RXRβ (Mus musculus, UniProt P28704); experiment: holoreceptor transactivation assay, RXRβ; assay type: cell-based; conditions: for EC50: holoreceptor assay, read-out: RXR Trans EC50 β; for Emax: relative to 10^-6 M cyclopropyl penta-2,4-dienoic acid reference, read-out: % efficacy, RXRβ transactivation
T1 construct: expressed in transfected cells
T1 sequence (P28704 1-520): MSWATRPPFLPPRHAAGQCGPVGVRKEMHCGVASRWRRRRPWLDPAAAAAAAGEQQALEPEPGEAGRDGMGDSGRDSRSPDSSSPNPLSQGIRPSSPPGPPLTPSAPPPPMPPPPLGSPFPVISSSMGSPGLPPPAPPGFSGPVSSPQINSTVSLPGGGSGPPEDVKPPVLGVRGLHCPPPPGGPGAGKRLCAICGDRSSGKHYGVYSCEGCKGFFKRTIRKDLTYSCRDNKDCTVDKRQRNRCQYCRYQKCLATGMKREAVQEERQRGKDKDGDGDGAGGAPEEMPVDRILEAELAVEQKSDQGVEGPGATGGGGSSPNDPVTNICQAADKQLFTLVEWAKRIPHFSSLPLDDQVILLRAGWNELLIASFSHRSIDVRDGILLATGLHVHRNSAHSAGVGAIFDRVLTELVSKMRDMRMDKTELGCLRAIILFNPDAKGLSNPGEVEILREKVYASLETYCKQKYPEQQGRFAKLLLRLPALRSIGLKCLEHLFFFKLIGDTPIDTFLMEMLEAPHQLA
Text: (§1) Other assays described below, measure the ability of the compounds of the present invention to bind to, and/or activate various retinoid receptor subtypes. When in these assays a compound binds to a given receptor subtype and activates the transcription of a reporter gene through that subtype, then the compound is considered an agonist of that receptor subtype. […] In the below described assays the ability of the compounds to bind to RARα, RARβ, RARγ, RXRα, RXRβ and RXRγ receptors, and the ability or inability of the compounds to activate transcription of a reporter gene through these receptor subtypes can be tested. […] However, some of the compounds of the invention may behave as retinoid antagonists or partial antagonists and/or as inverse agonists. Because of the complex distribution of the different retinoid receptors in various organs of the mammalian body partial agonists and partial antagonists and compounds which have the characteristics of both may lend themselves to particularly useful therapeutic applications and may avoid serious side effects of conventional retinoid drugs.
(§2) A holoreceptor transactivation assay and a ligand binding assay which measure the antagonist/agonist like activity of the compounds of the invention, or their ability to bind to the several retinoid receptor subtypes, respectively, are described in published PCT Application No. WO WO93/11755 (particularly on pages 30-33 and 37-41) published on Jun. 24, 1993, the specification of which is also incorporated herein by reference. A detailed experimental procedure for holoreceptor transactivations has been described by Heyman et al. Cell 68, 397-406, (1992); Allegretto et al. J. Biol. Chem. 268, 26625-26633, and Mangelsdorf et al. The Retinoids: Biology, Chemistry and Medicine, pp 319-349, Raven Press Ltd., New York, which are expressly incorporated herein by reference. The results obtained in this assay are expressed in EC50 numbers, as they are also in the chimeric receptor transactivation assay. The results of ligand binding assay are expressed in Kd numbers. (See Cheng et al. Biochemical Pharmacology Vol. 22 pp 3099-3108, expressly incorporated herein by reference.)
(§3) Table 1 discloses the activity of certain exemplary compounds of the invention in the above-described chimeric receptor transactivation assay, holoreceptor transactivation assay and a ligand binding assays. Particularly, the transactivation data pertaining to RAR receptors were obtained in the chimeric assay, and the data pertaining to transactivation of RXR receptors were obtained in the holoreceptor transactivation assay.

RARγ = target: T2, RARγ (Homo sapiens, UniProt P13631); experiment: ligand binding assay, RARγ; conditions: read-out: RAR Bind Ki γ
T2 sequence (P13631 1-454): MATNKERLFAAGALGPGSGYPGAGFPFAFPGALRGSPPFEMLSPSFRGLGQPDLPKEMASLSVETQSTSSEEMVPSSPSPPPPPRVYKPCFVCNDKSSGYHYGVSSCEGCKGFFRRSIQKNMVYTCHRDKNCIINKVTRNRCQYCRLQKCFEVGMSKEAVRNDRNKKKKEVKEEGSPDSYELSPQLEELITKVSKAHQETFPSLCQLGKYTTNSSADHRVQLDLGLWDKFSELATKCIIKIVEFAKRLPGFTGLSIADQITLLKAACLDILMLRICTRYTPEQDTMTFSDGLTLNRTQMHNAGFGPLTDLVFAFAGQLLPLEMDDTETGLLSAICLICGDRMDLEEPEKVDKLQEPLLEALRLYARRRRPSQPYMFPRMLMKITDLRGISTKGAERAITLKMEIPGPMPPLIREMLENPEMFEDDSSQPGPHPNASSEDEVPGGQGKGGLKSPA
Text: as §1, §2, §3

RXRα = target: T3, RXRα (Homo sapiens, UniProt P19793); experiment: ligand binding assay, RXRα; conditions: read-out: RXR Bind Ki α
T3 construct: expressed in transfected cells
T3 sequence (P19793 1-462): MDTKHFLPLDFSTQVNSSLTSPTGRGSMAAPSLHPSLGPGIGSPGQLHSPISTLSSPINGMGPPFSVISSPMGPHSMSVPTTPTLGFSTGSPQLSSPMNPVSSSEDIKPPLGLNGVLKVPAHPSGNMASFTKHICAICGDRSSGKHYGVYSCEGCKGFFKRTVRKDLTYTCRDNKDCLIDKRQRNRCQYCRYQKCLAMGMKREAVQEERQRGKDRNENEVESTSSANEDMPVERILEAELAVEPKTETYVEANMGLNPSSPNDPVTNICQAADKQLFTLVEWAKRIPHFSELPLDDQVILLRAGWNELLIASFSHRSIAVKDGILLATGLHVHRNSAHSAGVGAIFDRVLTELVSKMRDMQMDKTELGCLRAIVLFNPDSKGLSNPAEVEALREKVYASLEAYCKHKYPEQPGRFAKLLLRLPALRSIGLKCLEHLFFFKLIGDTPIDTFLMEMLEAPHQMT
Text: as §1, §2, §3

RXRβ [2] = target: T4, RXRβ (Homo sapiens, UniProt P28702); experiment: ligand binding assay, RXRβ; conditions: read-out: RXR Bind Ki β
T4 sequence (P28702 1-533): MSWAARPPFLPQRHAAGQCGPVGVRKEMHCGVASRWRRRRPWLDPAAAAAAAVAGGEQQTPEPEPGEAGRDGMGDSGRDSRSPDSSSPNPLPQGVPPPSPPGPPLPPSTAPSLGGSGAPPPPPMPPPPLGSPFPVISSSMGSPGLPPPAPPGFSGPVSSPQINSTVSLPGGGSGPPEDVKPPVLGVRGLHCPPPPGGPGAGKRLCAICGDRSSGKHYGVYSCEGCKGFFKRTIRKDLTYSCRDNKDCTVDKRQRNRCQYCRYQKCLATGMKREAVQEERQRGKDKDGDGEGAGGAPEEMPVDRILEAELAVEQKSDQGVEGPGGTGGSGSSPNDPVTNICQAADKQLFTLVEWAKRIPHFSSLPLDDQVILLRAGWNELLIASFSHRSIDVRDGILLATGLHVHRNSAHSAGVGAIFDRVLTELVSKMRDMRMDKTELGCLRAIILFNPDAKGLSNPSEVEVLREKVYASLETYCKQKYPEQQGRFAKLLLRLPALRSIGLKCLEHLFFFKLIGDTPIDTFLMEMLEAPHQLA
Text: as §1, §2, §3

| SMILES | EC50 (RXRβ [1]) [µM] | Emax (RXRβ [1]) [%] | Ki (RARγ) [µM] | Ki (RXRα) [µM] | Ki (RXRβ [2]) [µM] |
| --- | --- | --- | --- | --- | --- |
| Cc1cc2c(cc1N(CC1CC1)c1ccc(C(=O)O)cc1)C(C)(C)CCN2C(C)C [Compound 26, 4-[(1-Isopropyl-4,4,7-trimethyl-1,2,3,4-tetrahydro-quinolin-6-yl)(cyclopropylmethyl)amino]benzoic acid] | > 1 | 10 | 4.7 | 0.413 | 0.386 |
| Cc1cc2c(cc1Nc1ccc(C(=O)O)cc1)N(C(C)C)CCC2(C)C [Compound 50, 4-(1-Isopropyl-4,4,6-trimethyl-1,2,3,4-tetrahydro-quinolin-7-ylamino)-benzoic acid] | 0.027 | 104 | > 10 | 0.327 | 0.262 |
| CCN(c1ccc(C(=O)O)cc1)c1ccc2c(c1)C(C)(C)CC(=O)N2C(C)C [Compound 6, 4-[(1-Isopropyl-4,4-dimethyl-2-oxo-1,2,3,4-tetrahydroquinolin-6-yl)ethylamino]benzoic Acid] | > 1 | 40 | > 30 | 9 | – |
| CC(C)CCN(c1ccc(C(=O)O)cc1)c1ccc2c(c1)C(C)(C)CCN2C(C)C [Compound 14, 4-[(1-Isopropyl-4,4-dimethyl-1,2,3,4-tetrahydroquinolin-6-yl)(3-methylbutyl)amino]-benzoic Acid] | – | – | 1.5 | 0.904 | 0.778 |
| CCN(c1ccc(C(=O)O)cc1)c1ccc2c(c1)C(C)(C)CCN2C(C)C [Compound 12, 4-[(1-Isopropyl-4,4-dimethyl-1,2,3,4-tetrahydroquinolin-6-yl)ethylamino]benzoic acid] | 1 | 75 | 1 | 0.136 | 0.273 |
| CC(C)CN(c1ccc(C(=O)O)cc1)c1ccc2c(c1)N(C(C)C)CCC2(C)C [Compound 39, 4-[(1-Isopropyl-4,4-dimethyl-1 2,3,4-tetrahydroquinolin-7-yl)isobutylamino]benzoic acid] | 0.01 | 97 | 2.8 | 0.049 | 0.133 |
| CCCN(c1ccc(C(=O)O)cc1)c1cc2c(cc1C)C(C)(C)CCN2C(C)C [Compound 53, 4-[(1-Isopropyl-4,4,6-trimethyl-1,2,3,4-tetrahydro-quinolin-7-yl)-propyl-amino]-benzoic acid] | 0.002 | 93 | 17 | 0.044 | 0.043 |
| Cc1cc2c(cc1N(C)c1ccc(C(=O)O)cc1)C(C)(C)CCN2C(C)C [Compound 22, 4-[(1-Isopropyl-4,4,7-trimethyl-1,2,3,4-tetrahydroquinolin-6-yl)methylamino]benzoic acid] | > 1 | 15 | 1.7 | 1.2 | 1.1 |
| CC(C)N1CCC(C)(C)c2ccc(N(CC3CC3)c3ccc(C(=O)O)cc3)cc21 [Compound 40, 4-[(1-Isolpropyl-4,4-dimethyl-1,2,3,4-tetrahydroquinolin-7-yl)(cylopropylmethyl)amino]benzoic acid] | 0.003 | 93 | 3.5 | 0.009 | 0.042 |
| CCN(c1ccc(C(=O)O)cc1)c1ccc2c(c1)N(C(C)C)CCC2(C)C [Compound 38, 4-[(1-Isopropyl-4,4-dimethyl-1,2,3,4-tetrahydroquinolin-7-yl)ethylamino]benzoic acid] | 0.007 | 102 | 6.3 | 0.01 | 0.057 |
| Cc1cc2c(cc1N(C)c1ccc(C(=O)O)cc1)N(C(C)C)CCC2(C)C [Compound 51, 4-[(1-Isopropyl-4,4,6-trimethyl-1,2,3,4-tetrahydro-quinolin-7-yl)-methyl-amino]-benzoic acid] | 0.374 | 119 | > 10 | 0.221 | 0.142 |
| CC(C)N1CCC(C)(C)c2cc(N(C)c3ccc(C(=O)O)cc3)ccc21 [Compound 10, 4-[(1-Isopropyl-4,4-dimethyl-1,2,3,4-tetrahydroquinolin-6-yl)methylamino]benzoic Acid] | – | – | > 10 | > 1 | > 1 |
| CCN(c1ccc(C(=O)O)cc1)c1cc2c(cc1C)C(C)(C)CCN2C(C)C [Compound 52, 4-[-(1-Isopropyl-4,4,6-trimethyl-1,2,3,4-tetrahydro-quinolin-7-yl)ethylamino]-benzoic acid] | 0.002 | 96 | 10 | 0.028 | 0.099 |
| CCN(c1ccc(C(=O)O)cc1)c1cc2c(cc1C)N(C(C)C)CCC2(C)C [Compound 24, 4-[(1-Isopropyl-4,4,7-trimethyl-1,2,3,4-tetrahydroquinolin-6-yl)ethylamino]benzoic acid] | 1 | 70 | 9.2 | 0.448 | 1.1 |

— US6127382A, “Amines substituted with a tetrahydroquinolinyl group an aryl or heteroaryl group and an alkyl group, having retinoid-like biological activity” (Allergan Sales, Inc., priority 1999, dated 2000)
